{"source": "patent US20080070987A1", "about": "“META-XYLYLENEDIAMINE VANADATE SALTS” (priority 2006, published 2008)", "key": {"[1]": {"test_system": "isolated mouse adipocytes", "assay": "Glucose (2-deoxyglucose) transport in isolated mouse adipocytes", "type": "cell-based, FVB mice", "conditions": "100 μM", "method": "Adipose cells from FVB mice were incubated for 45 minutes in basal conditions (Basal) or in the presence of 100 nM insulin (Ins), and different concentrations of hexaquis(benzylammonium) decavanadate (B6V10) in the absence or in the presence of 1 mM semicarbazide (SCZ) and thereafter, 2-DG transport was measured over 5 min."}, "[2]": {"test_system": "streptozotocin-induced diabetic rats", "assay": "Chronic subcutaneous (osmotic minipump) treatment of streptozotocin-induced diabetic rats, glycemia", "type": "in vivo, rat", "conditions": "for effect on glycemia, in words: streptozotocin (45 mg/kg) diabetic rats, 2.5 μmol/kg/day subcutaneous by osmotic minipumps, about two weeks", "method": "FIG. 3 is a graphical illustration of hexaquis(benzylammonium) decavanadate chronic treatment effect on glycemia of diabetic rats by streptozotocin. In FIG. 3, [G] corresponds to the blood concentration of glucose (expressed in mg/dl) measured at different days of treatment (t/d). Diabetic rats were treated, by mini-osmotic pumps, with buffered solution (black diamonds), with hexaquis(benzylammonium) decavanadate (2.5 μmol/kg/day) (black squares) or with identical dose of sodium decavanadate (white circles).\nThe effect of chronic administration of hexaquis(benzylammonium) decavanadate on glycemia from diabetic rats was determined. Diabetes was induced in rats by intravenous administration of streptozotocin, which destroys the β-pancreatic cells that produce insulin.\nMale Wistar rats weighting 180-220 g were purchased from Harlan (Interfauna Ibérica S.A., Spain). Diabetes was induced by a single intraperitoneal injection of a freshly prepared solution of streptozotocin (in some studies the dose was 45 mg/kg body weight and in some others 100 mg/kg body weight dissolved in 50 mM citrate buffer, pH 4.5). Only diabetic animals with glycemia above 300 mg/dl were used. The animals were housed in animal quarters at 22° C. with a 12 h light/12 h dark cycle and were fed ad libitum. All procedures used were approved by the animal ethical committee of the University of Barcelona, Spain. Male mice C57 BL/Ks bearing the db/db mutation (Jackson Laboratories, Bar Harbor, Me.) were purchased from Harlan France (Gannat, France). C57BL/6J male mice were assigned for 16 weeks to very high-fat diet containing (in kcal): 72% from fat, 28% from proteins and <1% from carbohydrates (Burcelin et al., 2002, Am. J. Physiol. Endocrinol. Metab 282: E834-E842).\nOsmotic minipumps delivering B6V10 (2.5 μmol/kg body wt/day) or decavanadate (2.5 μmol/kg body wt/day) were implanted subcutaneously in diabetic rats anaesthetised by ketamine hydrochloride (95 mg/kg) and xylasine (10 mg/kg). […] Glycemia was measured on arterio-venous blood collected from the tail vessels at 09:00 am for two weeks, before the administration of vanadate. Insulin concentrations were determined before and after treatment. In another set of experiments, B6V10 was orally administered at a single dose of 5 μmol/kg/day during the first week and 10 μmol/kg/day during 2 additional weeks by gastric gavage. A control group received the corresponding decavanadate salt in the absence of benzylamine. At the end of the treatment, animals were sacrificed and the liver, fat pad, heart and lung were kept at −80° C. and the plasma at −20° C. until their use for in vitro analysis.\nIn glucose tolerance tests and in chronic treatments, circulating glucose concentrations were determined by a rapid glucose analyser (Accutrend® Sensor Comfort, Roche, Basel. Switzerland). Plasma insulin (IRI) concentration was determined by ELISA method using a kit obtained from Crystal Chem. Inc. (Downers Grove, Ill.). Plasma triglycerides (Biosystems, Barcelona, Spain) and NEFAS (Wako Chemicals, Neuss, Germany) were determined with standard […] methods.\nChronic in vivo efficacy of B6V10 was evaluated in streptozotocin-induced diabetic rats and in db/db mice. Streptozotocin-induced (45 mg/kg) diabetic rats were subcutaneously treated with hexaquis(benzylammonium) decavanadate (2.5 μmol/kg) (B6V10, solid squares, FIG. 8A) or with decavanadate (2.5 μmol/kg) (V10, open circles, FIG. 8A) delivered subcutaneously by osmotic minipumps implanted in the dorsal region. Diabetic rats were also sham-operated (untreated, solid diamonds, FIG. 8A). […] These experiments were repeated using an oral administration protocol. Streptozotocin-induced (45 mg/kg) diabetic rats were orally treated with hexaquis(benzylammonium) decavanadate (5 μmol/kg from day 0 to day 7 and 10 μmol/kg/day from day 7 to day 17) (B6V10, solid squares, FIG. 8B) or received decavanadate (10 μmol/kg) (V10, open circles, FIG. 8B). […]"}}, "data": [{"substance": "hexaquis(benzylammonium) decavanadate [Example B6V10]", "values": [{"measurement": "stimulation of glucose transport (% increase)", "setting": "[1]", "result": 93, "unit": "%"}, {"measurement": "time at which reduction of hyperglycemia was detected", "setting": "[2]; 2.5 μmol/kg/day subcutaneous minipumps", "result": "after only four days of treatment"}, {"measurement": "glucose transport in adipocytes isolated from treated rats", "setting": "[2]; adipocytes isolated at fourteen days of treatment", "result": "increased glucose transport under basal conditions equivalent to that seen in the presence of insulin"}, {"measurement": "effect on glycemia, in words", "setting": "[2]", "result": "significant correction of hyperglycemia"}, {"measurement": "effect on glycemia, in words", "setting": "[2]; listed as hexaquis(benzylammonium) decavanadate", "result": "rapid reduction of the hyperglycemia"}]}, {"substance": "sodium decavanadate [Example V10, reference compound]", "values": [{"measurement": "effect on glycemia, in words", "setting": "[2]", "result": "did not alter glycemia"}, {"measurement": "effect on glycemia, in words", "setting": "[2]; listed as sodium decavanadate", "result": "did not modify substantially its glycemia"}]}]}
